Common to all, as to experiment: inhibition of tumour cell growth, NCI panel, 48 h
The subject of assay [1] is NCI/ADR-RES ovarian.
The subject of assay [2] is DU-145 prostate.
Assay [3] concerns SF-295 CNS.
The subject of assay [4] is UACC-257 melanoma.
The test system of assay [5] is MALME-3M melanoma.
The subject of assay [6] is BT-549 breast.
Assay [7] concerns OVCAR-8 ovarian.
Assay [8] deals with NCI-H522 lung.
Assay [9] concerns LOX IMVI melanoma.

Each structure is given as a SMILES string.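 Assay format: 96-well plates, 48-hour exposure. TGI: total growth inhibition.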

On to `CC(=O)Nc1nnc(S(C)(=O)=O)s1`, for which the TGI in [1], in assay [2], in assay [3], in [4], in assay [5] and in assay [6] was more than 100 µM throughout. The compound also had a TGI in assay [7] of more than 100 µM.

For the compound `CC(C)(C)c1cc2c(O)c(c1)Cc1cc(C(C)(C)C)cc(c1O)Cc1cc(C(C)(C)C)cc(c1O)Cc1cc(C(C)(C)C)cc(c1O)Cc1cc(C(C)(C)C)cc(c1O)Cc1cc(C(C)(C)C)cc(c1O)Cc1cc(C(C)(C)C)cc(c1O)Cc1cc(C(C)(C)C)cc(c1O)C2`, the TGI in assay [1], in assay [2], in assay [8], in assay [3], in [4] and in assay [5] was more than 50 µM each time. The TGI in assay [7] was more than 50 µM.

Turning to `Brc1ccc2c(c1)-c1nc3nc4c(cc3cc1CC2)CCc1ccc(Br)cc1-4`, the TGI in [1], in [9], in [8], in assay [3], in assay [4] and in assay [5] was more than 100 µM throughout. In addition, the TGI in [6] and in assay [7] was more than 100 µM each time.

Turning to `O=C(NCCNCCCNC(=O)c1cc(-c2ccccc2)nc2ccccc12)c1cccc(OCc2ccccc2)c1OCc1ccccc1`, the TGI in assay [1] is 3.51 µM; in assay [9], 2.95 µM; in assay [2], 3.26 µM; in assay [8] it was 3.12 µM; in assay [3] it was 3.03 µM; in assay [4], 3.28 µM. In addition, the TGI in assay [5] was determined as 3.58 µM; in assay [7] it was 3.15 µM.

Take `CC1=CC(=O)CC(C)(C)C1/C=C/C(C)=C/C=C/C(C)=C/C=C/C=C(C)/C=C/C=C(C)/C=C/C1=C(C)CC(O)CC1(C)C` (configuration not stated): the TGI in assay [1] was more than 100 µM; in assay [9], more than 100 µM; in [2] it was more than 100 µM; in assay [8] it was 72.7 µM; in [3] it was more than 100 µM; in [4] it was more than 100 µM. Moreover, the TGI in assay [7] is more than 100 µM.

Regarding `O=C(O)c1ccc(C2SCc3nc4ccccc4n32)cc1` (configuration not stated), the TGI in assay [2], in assay [8], in [3], in assay [4], in assay [5] and in [6] was more than 100 µM throughout. Moreover, in [7], the TGI is more than 100 µM.

Take `CSC12c3cc(C)n(-c4ccccc4)c3CC(C)(C)CN1C(=O)C2Oc1ccccc1` (configuration not stated): the TGI in assay [1], in assay [9], in assay [2], in [3], in assay [4] and in assay [6] was more than 100 µM throughout. In assay [7], this compound displayed a TGI of more than 100 µM.

On to `CCOC1Oc2ccccc2-c2nc(SC)ncc21` (configuration not stated), for which the TGI in assay [1], in assay [9], in assay [2], in assay [8], in [3] and in assay [4] was more than 100 µM in each case. The TGI in [6] and in assay [7] was more than 100 µM each time.

On to `C=CCOC(=O)C1=C(CCC[C@@H](C)O[Si](C)(C)C(C)(C)C)N=C(N)N2[C@H](CCO)CC[C@@H]12`, for which the TGI in [1] came out at 35 µM; in [2] it was 28.6 µM; in [8] it was 25.2 µM; in [3], 25.2 µM; in assay [4], 38.7 µM; in assay [5], 34.9 µM. In addition, the TGI in assay [6] came out at 36.5 µM.

For `COC(=O)[C@H](Cc1ccc(OC(C)(C)C)cc1)N[C@H](C)C(=O)N[C@@H](Cc1ccccc1)C(=O)OCc1ccccc1`, the TGI in assay [1], in assay [9], in assay [2], in assay [8], in assay [3] and in assay [4] was more than 100 µM in each case. The TGI in assay [5] and in assay [7] was more than 100 µM in each case.

Regarding `O=c1[nH]c(=O)n(C2OC(CO)C(O)C2O)cc1Oc1ccccc1` (configuration not stated), the TGI in [1], in [9], in [2], in [8], in assay [3] and in assay [4] was more than 100 µM in each case. Moreover, the TGI in assay [5] and in assay [7] was more than 100 µM throughout.

In the case of `Cn1c(=O)sc2cc(C(=S)N3CCC(Cc4ccccc4)CC3)ccc21`, the TGI in assay [1], in assay [9], in assay [2], in assay [3], in assay [4] and in [6] was more than 100 µM throughout. The TGI in assay [7] was more than 100 µM.

For `COc1ccc(C(=O)/C=C/c2ccc(OCCSCCCCCCCCCCSCCOc3ccc(/C=C/C(=O)c4ccc(OC)c(OC)c4)cc3)cc2)cc1OC`, the TGI in [9], in [2], in [8], in assay [3], in assay [4] and in [5] was more than 100 µM in each case. Besides, the TGI in [6] and in assay [7] was more than 100 µM each time.

On to `Cc1cc(S(=O)(=O)/N=C(/[N-]S(=O)(=O)c2ccc(Cl)cc2)[n+]2ccc(N(C)C)cc2)c(SCC(=O)O)cc1Cl`, for which the TGI in assay [9], in [2], in assay [3], in assay [4], in [5] and in assay [6] was more than 100 µM each time. The same compound gave a TGI in assay [7] of more than 100 µM.

In the case of `O=C(OCc1ccccc1)N(CCCCN(CCCNCc1ccccc1)C(=O)OCc1ccccc1)CCCNCc1ccccc1`, the TGI in assay [1] was 3.43 µM; in assay [2], 2.55 µM; in [3] it was more than 100 µM; in [4], 1.92 µM; in assay [5], 3.29 µM; in assay [7], 2.79 µM.

Consider `COC(=O)C1(C(=O)OC)N=C(C)OC1/C=C/c1ccccc1` (configuration not stated), for which the TGI in assay [1], in assay [9], in assay [2], in assay [3], in assay [4] and in assay [6] was more than 100 µM in each case. Moreover, the TGI in assay [7] is more than 100 µM.

(Values after PubChem BioAssay (NCI).)
